Values of other authors as cited in patent US20150258085A1, “Treating Tumors of the Central Nervous System” (THE REGENTS OF THE UNIVERSITY OF CALIFORNIA, priority 2012, published 2015).

Test system: newly diagnosed glioblastoma
Conditions: systemic irinotecan plus TMZ versus TMZ alone

Question: Which results are given for `CCc1c2c(nc3ccc(OC(=O)N4CCC(N5CCCCC5)CC4)cc13)-c1cc3c(c(=O)n1C2)COC(=O)[C@]3(O)CC` [irinotecan]?
Answer: clinical outcome: comparable to TMZ alone; toxicity / tolerability: more toxic and poorly tolerated
